Data published in US20230320956A1, “DIARYLALKANE COMPOUNDS AND COMPOSITIONS FOR USE WITH SKIN AGING AND METHODS OF PRODUCTION THEREOF” (Unigen, Inc., priority 2022, published 2023).

Assays:
[1] = tested on: keratinocytes (Hacat cell line); assay: Global gene expression (RNA-seq) in treated keratinocytes; format: cell-based, human; conditions: for Fold change (gene expression): 40 μM vs untreated; for Fold Enrichment / Number of Genes Differentially Expressed: 40 μM
Protocol: To determine specific expression changes dimethoxytolyl propylresorcinol exerted on human keratinocyte aging genes, keratinocytes (Hacat cell line) were treated dimethoxytolyl propylresorcinol at 40 μM and gene expression was analyzed by RNA-seq. Differential gene expression was compared to untreated keratinocytes and cells treated with 40 μM Retinol A to find genes involved in aging. […] Retinol was chosen as a positive control because retinoids have been described as having effective anti-aging and anti-wrinkle effects (Zasada M, 2019). We directly compared the effects of Retinol on keratinocytes with the same concentration of dimethoxytolyl propylresorcinol.

[2] = tested on: skin blotchiness/age spots, Caucasian subjects; assay: Self-assessment of skin blotchiness/age spots, Caucasian subjects; format: in vivo, human; conditions: Week 8
Protocol: Skin Blotchiness/Age Spots (Caucasian subjects): In order to determine any changes in skin blotchiness/age spots, chroma was analyzed by Visia CR®. The degree to which a color is free from being mixed with other colors is a good indication of its chromacity. An increase in the chroma score represented an improvement in skin blotchiness/age spots. A decrease represented a worsening. At each visit, Caucasian subjects rated their skin blotchiness/age spots according to the following scale: 0—No skin blotchiness or age spots visible, 1-3—Slight areas of skin blotchiness or age spots visible, 4-6—Moderate areas of skin blotchiness or age spots visible, 7-9—Severe areas of skin blotchiness or age spots visible. Additionally, at the final visit, subjects completed a questionnaire. There were no significant changes to skin blotchiness/age spots as assessed by the Visia CR® analysis at any of the clinic visits, although the Mean Score for skin blotchiness/age spots trended toward an increase at all 2, 4, and 8 weeks after starting dimethoxytolyl propylresorcinol use compared to Baseline, indicating an improvement in skin blotchiness/age spots (Table 27).

[3] = Gene Cluster Activation of MAPK activity
[4] = Gene Cluster Calcium ion binding
[5] = Gene Cluster Cell-cell signaling
[6] = Gene Cluster Cellular response to lipopolysaccharide
[7] = Gene Cluster Cellular response to retinoic acid
[8] = Gene Cluster Epidermis development
[9] = Gene Cluster Epithelial cell differentiation
[10] = Gene Cluster Extracellular exosome
[11] = Gene Cluster Extracellular matrix organization
[12] = Gene Cluster Extracellular region
[13] = Gene Cluster Extracellular space
[14] = Gene Cluster Growth factor activity
[15] = Gene Cluster Hyaluronan biosynthetic process
[16] = Gene Cluster Inflammatory response
[17] = Gene Cluster Intermediate filament cytoskeleton organization
[18] = Gene Cluster Keratinocyte differentiation
[19] = Gene Cluster Negative regulation of ERK1 and ERK2 cascade
[20] = Gene Cluster Negative regulation of cell proliferation
[21] = Gene Cluster Negative regulation of endopeptidase activity
[22] = Gene Cluster Neutrophil chemotaxis
[23] = Gene Cluster O-glycan processing
[24] = Gene Cluster Osteoblast differentiation
[25] = Gene Cluster Positive regulation of angiogenesis
[26] = Gene Cluster Positive regulation of cell migration
[27] = Gene Cluster Positive regulation of cell proliferation
[28] = Gene Cluster Positive regulation of gene expression
[29] = Gene Cluster Positive regulation of smooth muscle cell proliferation
[30] = Gene Cluster Proteinaceous extracellular matrix
[31] = Gene Cluster Transforming growth factor beta receptor binding

## COc1ccc(CCCc2ccc(O)cc2O)c(OC)c1C [dimethoxytolyl propylresorcinol, 1-(3-methyl-2,4-dimethoxyphenyl)-3-(2′,4′-dihydroxyphenyl)-propane]
[1]; AHR - Aryl hydrocarbon receptor, Oxidative stress
  Fold change (gene expression): 1.73 fold
[1]; ANGPTL4 - Angiopoietin-like 4, Negative regulation of growth/Angiogenesis
  Fold change (gene expression): 8.23 fold
[1]; ANOS1 - Anosmin 1, ECM/Nerve adhesion
  Fold change (gene expression): 0.49 fold
[1]; BMP4 - Bone morphogenetic protein 4, Growth
  Fold change (gene expression): 0.41 fold
[1]; C3orf33 - Chromosome 3 open reading frame 33, Negative regulation of growth
  Fold change (gene expression): 3.03 fold
[1]; CD1D - CD1d molecule, ECM
  Fold change (gene expression): 0.36 fold
[1]; CDK5R1 - Cyclin-dependent kinase 5 activator 1, Growth/Skin barrier
  Fold change (gene expression): 1.54 fold
[1]; CEACAM1 - CEA cell adhesion molecule 1, Cell adhesion
  Fold change (gene expression): 2.01 fold
[1]; COL1A1 - Collagen type 1, ECM
  Fold change (gene expression): 1.89 fold
[1]; COL5A1 - Collagen type V alpha 1 chain, ECM
  Fold change (gene expression): 0.24 fold
[1]; CRISPLD2 - Cysteine-rich secretory protein LCCL domain-containing 2, ECM
  Fold change (gene expression): 2.56 fold
[1]; CXCL3 - C-X-C motif chemokine ligand 3, Immune signaling
  Fold change (gene expression): 8.16 fold
[1]; CYP1A1 - Cytochrome P450 family 1 subfamily A member 1, Drug metabolism
  Fold change (gene expression): 5.04 fold
[1]; ECM1 - Extracellular matrix protein 1, ECM
  Fold change (gene expression): 2.49 fold
[1]; EPHA4 - Ephrin type-A receptor 4, Cell adhesion, cell communication
  Fold change (gene expression): 0.42 fold
[1]; EREG - Epiregulin, Growth
  Fold change (gene expression): 9.61 fold
[1]; FABP5 - Fatty acid binding protein 5, Skin barrier
  Fold change (gene expression): 1.68 fold
[1]; FGF1 - Fibroblast growth factor 1, Growth
  Fold change (gene expression): 0.43 fold
[1]; FGF11 - Fibroblast growth factor 11, Growth
  Fold change (gene expression): 0.56 fold
[1]; FLRT2 - Fibronectin leucine-rich transmembrane protein 2, ECM
  Fold change (gene expression): 0.30 fold
[1]; [3]
  Fold Enrichment: 2.39 fold
  Number of Genes Differentially Expressed: 14
[1]; Gene Cluster Angiogenesis
  Fold Enrichment: 2.79 fold
  Number of Genes Differentially Expressed: 34
[1]; [4]
  Fold Enrichment: 1.49 fold
  Number of Genes Differentially Expressed: 58
[1]; Gene Cluster Cell development
  Fold Enrichment: 4.12 fold
  Number of Genes Differentially Expressed: 9
[1]; Gene Cluster Cell surface
  Fold Enrichment: 1.85 fold
  Number of Genes Differentially Expressed: 53
[1]; [5]
  Fold Enrichment: 2.59 fold
  Number of Genes Differentially Expressed: 36
[1]; [6]
  Fold Enrichment: 3.08 fold
  Number of Genes Differentially Expressed: 19
[1]; [7]
  Fold Enrichment: 3.14 fold
  Number of Genes Differentially Expressed: 12
[1]; [8]
  Fold Enrichment: 4.52 fold
  Number of Genes Differentially Expressed: 21
[1]; [9]
  Fold Enrichment: 2.87 fold
  Number of Genes Differentially Expressed: 11
[1]; [10]
  Fold Enrichment: 1.23 fold
  Number of Genes Differentially Expressed: 183
[1]; [11]
  Fold Enrichment: 2.05 fold
  Number of Genes Differentially Expressed: 22
[1]; [12]
  Fold Enrichment: 1.60 fold
  Number of Genes Differentially Expressed: 136
[1]; [13]
  Fold Enrichment: 1.97 fold
  Number of Genes Differentially Expressed: 140
[1]; [14]
  Fold Enrichment: 3.63 fold
  Number of Genes Differentially Expressed: 32
[1]; Gene Cluster Growth
  Fold Enrichment: 5.23 fold
  Number of Genes Differentially Expressed: 8
[1]; Gene Cluster Heparin binding
  Fold Enrichment: 2.53 fold
  Number of Genes Differentially Expressed: 22
[1]; [15]
  Fold Enrichment: 10.45 fold
  Number of Genes Differentially Expressed: 4
[1]; [16]
  Fold Enrichment: 2.61 fold
  Number of Genes Differentially Expressed: 54
[1]; [17]
  Fold Enrichment: 7.32 fold
  Number of Genes Differentially Expressed: 6
[1]; [18]
  Fold Enrichment: 3.13 fold
  Number of Genes Differentially Expressed: 13
[1]; [19]
  Fold Enrichment: 3.47 fold
  Number of Genes Differentially Expressed: 11
[1]; [20]
  Fold Enrichment: 2.17 fold
  Number of Genes Differentially Expressed: 47
[1]; [21]
  Fold Enrichment: 2.42 fold
  Number of Genes Differentially Expressed: 16
[1]; [22]
  Fold Enrichment: 3.33 fold
  Number of Genes Differentially Expressed: 12
[1]; [23]
  Fold Enrichment: 3.05 fold
  Number of Genes Differentially Expressed: 10
[1]; [24]
  Fold Enrichment: 2.64 fold
  Number of Genes Differentially Expressed: 15
[1]; [25]
  Fold Enrichment: 3.02 fold
  Number of Genes Differentially Expressed: 19
[1]; [26]
  Fold Enrichment: 2.88 fold
  Number of Genes Differentially Expressed: 29
[1]; [27]
  Fold Enrichment: 1.96 fold
  Number of Genes Differentially Expressed: 50
[1]; [28]
  Fold Enrichment: 1.82 fold
  Number of Genes Differentially Expressed: 26
[1]; [29]
  Fold Enrichment: 4.88 fold
  Number of Genes Differentially Expressed: 16
[1]; [30]
  Fold Enrichment: 2.47 fold
  Number of Genes Differentially Expressed: 35
[1]; Gene Cluster Response to drug
  Fold Enrichment: 2.04 fold
  Number of Genes Differentially Expressed: 34
[1]; [31]
  Fold Enrichment: 4.82 fold
  Number of Genes Differentially Expressed: 11
[1]; Gene Cluster Wound healing
  Fold Enrichment: 3.20 fold
  Number of Genes Differentially Expressed: 14
[1]; HAS2 - hyaluronan synthase 2, ECM
  Fold change (gene expression): 5.48 fold
[1]; HAS3 - hyaluronan synthase 3, ECM
  Fold change (gene expression): 3.59 fold
[1]; HBEGF - Heparin-binding EGF-like growth factor, Growth
  Fold change (gene expression): 8.61 fold
[1]; HIF1A - Hypoxia-inducible factor 1 subunit alpha, Oxidative stress
  Fold change (gene expression): 1.36 fold
[1]; HMOX1 - Heme oxygenase 1, Oxidative stress
  Fold change (gene expression): 5.23 fold
[1]; HS3ST1 - Heparan sulfate-glucosamine 3-sulfotransferase 1, ECM
  Fold change (gene expression): 2.28 fold
[1]; IL1A - Interleukin 1 alpha, Cytokine signaling
  Fold change (gene expression): 6.60 fold
[1]; IL1RL1 - Interleukin 1 receptor-like 1, Immune signaling
  Fold change (gene expression): 17.29 fold
[1]; ITGA6 - Integrin subunit alpha 6, Cell adhesion
  Fold change (gene expression): 1.44 fold
[1]; ITGBL1 - Integrin subunit beta-like 1, Cell adhesion
  Fold change (gene expression): 0.68 fold
[1]; KIF13A - Kinesin family member 13A, Cytoskeleton/secretion
  Fold change (gene expression): 0.67 fold
[1]; LAMA3 - Laminin subunit alpha 3, ECM
  Fold change (gene expression): 1.59 fold
[1]; LAMC2 - Laminin subunit gamma 2, ECM
  Fold change (gene expression): 2.72 fold
[1]; NGF - Nerve growth factor, Growth
  Fold change (gene expression): 113.25 fold
[1]; NID2 - Nidogen 2 precursor, ECM
  Fold change (gene expression): 1.45 fold
[1]; OCLN - Occludin, Skin barrier
  Fold change (gene expression): 1.42 fold
[1]; OLFM4 - Olfactomedin 4, ECM
  Fold change (gene expression): 0.10 fold
[1]; PARP15 - Poly (ADP-Ribose) polymerase family member 15, DNA damage repair/transcription regulation
  Fold change (gene expression): 98.2 fold
[1]; PI3 - Peptidase inhibitor 3, elastase inhibitor, Elastin genes
  Fold change (gene expression): 10.5 fold
[1]; PSAPL1 - Prosaposin-like 1, ECM
  Fold change (gene expression): 0.30 fold
[1]; PSG5 - Pregnancy specific beta-1-glycoprotein 5, ECM
  Fold change (gene expression): 0.30 fold
[1]; PTPRR - Protein tyrosine phosphatase receptor type R, Negative regulation of growth
  Fold change (gene expression): 3.96 fold
[1]; RAPGEF3 - Rap guanine nucleotide exchange factor 3, Plasma membrane fusion/cytoskeleton
  Fold change (gene expression): 1.78 fold
[1]; SELE - E-Selectin, Cell adhesion
  Fold change (gene expression): 99.30 fold
[1]; SEMA3D - Semaphorin 3D, ECM/Nerve growth
  Fold change (gene expression): 0.54 fold
[1]; SERPINB2 - Serpin family B member 2, Skin barrier
  Fold change (gene expression): 4.25 fold
[1]; SERPINB4 - Serpin family B member 4, Skin barrier
  Fold change (gene expression): 6.37 fold
[1]; SIRT1 - Sirtuin 1, Transcription regulation
  Fold change (gene expression): 1.30 fold
[1]; SIRT7 - Sirtuin 7, Transcription regulation
  Fold change (gene expression): 1.41 fold
[1]; SOD2 - Superoxide dismutase 2, Oxidative stress
  Fold change (gene expression): 1.54 fold
[1]; TFP12 - Tissue factor pathway inhibitor 2, ECM
  Fold change (gene expression): 2.37 fold
[1]; TGFB1 - Transforming growth factor beta 1, TGF-β signaling
  Fold change (gene expression): 1.30 fold
[1]; TLR4 - Toll-like receptor 4, Immune signaling
  Fold change (gene expression): 3.41 fold
[1]; TNC - Tenascin C, ECM/Nerve growth
  Fold change (gene expression): 0.50 fold
[1]; TP73 - Tumor protein P73, Growth
  Fold change (gene expression): 0.35 fold
[1]; TXNRD1 - Thioredoxin reductase 1, Oxidative stress
  Fold change (gene expression): 1.52 fold
[1]; UGCG - UDP-glucose ceramide glucosyltransferase, Lipid metabolism and transport
  Fold change (gene expression): 1.56 fold
[1]; VIT - Vitrin, ECM
  Fold change (gene expression): 0.08 fold
[2]
  Self-Assessment Skin Blotchiness/Age Spots % Improvement from Baseline: 37%
